Assay results reported in patent US20260068886A1, “COMPOSITIONS AND METHODS FOR TARGETED INHIBITION AND DEGRADATION OF PROTEINS IN AN INSECT CELL” (Oerth Bio LLC, priority 2022, published 2026).
Entries after “also recorded” stand apart in the source; their conditions may differ.

Key:
FKBP-GFP = assay: sfVHL mediated FKBP degradation in Sf9 cells expressing FKBP-GFP-P2A-RFP (fluorescence microscopy); format: cell-based
Protocol: FIG. 2 presents graphs showing the FKBP-GFP to RFP signal ratio when treated with dTAG-V1 (dose curve) and Bortezomib (1 or 10 μM).
FIG. 3 presents microscopy images showing the data plotted in the graphs of FIG. 2. The images are of dTAG-V1 treated Sf9 cells expressing FKBP-GFP-P2A-RFP observed in Brightfield, green fluorescent protein and red fluorescent protein excitation wavelengths.
Sf9 cells were seeded into individual wells of 6-well sterile tissue culture plates (2×10^6 cells per well) with 2 mL fresh Sf900 III serum-free medium prior to the assay. The Sf9 cells were transfected with a plasmid expressing FKBP-GFP-P2A-RFP. Plasmid construct (in TE buffer) was aliquoted into a sterile Eppendorf microcentrifuge tube, with fresh sSf900 III medium added to each Plasmid. Cellfectin II reagent (Life Technologies, Carlsbad, CA) was then added to the transfection mixture, and the tubes were inverted to mix and incubated at room temperature for 30 minutes. All media was removed from each well just prior to the addition of the transfection mixture. Complete transfection mixtures were added to cells dropwise using a P1000 pipette with sterile filter tips. Cells overlayed with transfection mixtures were incubated at 27° C. for 4 hours. Following 4 hours of incubation time, transfection mixtures were removed and replaced with 2 mL of fresh complete medium per well (Sf900 III). Cells were allowed to incubate at 27° C. for 96 hours to allow expression from the transfected plasmid. After construct expression, cells are harvested for further experiments. Cells were detached using a P1000 pipette with sterile filter tips. Cells were resuspended in fresh Sf900 III medium. Transfected Sf9 cells were seeded into individual wells of 96-well sterile tissue culture plates (1×10^6 cells per well) with 0.1 mL fresh Sf900 III serum-free medium. Cells were then supplemented with a 10× stock of the indicated compounds (dTAGV1, dTAG-V1-NEG, Bortezomib). Protein levels were finally analyzed using Carl Zeiss microscopy and FIJI image analysis.

[1] = test system: MBP-FKBP-Hibit-His6 / sfVHL:sfElonginB/C+CUL2/RBX1; assay: in vitro ubiquitination of MBP-FKBP-Hibit-His6 by sfVHL mediated by dTAGV-1 (Western blot, anti-His6); format: biochemical; settings: sfVHL:sfElonginB/C + human CUL2/RBX1, E1, E2, ATP, ubiquitin; range of concentrations; room temperature
Excerpt: Lanes 1-4 and 5-8 are replicates of dose dependent dTAGV-1 dependent ubiquitination of MBP-FKBP-HIbit by sfVHL in vitro. In vitro ubiquitination is sfVHL dependent. No ubiquitination of MBP-FKBP-Hibit is observed in the absence of sfVHL (Lanes 9-16).
To assess the ability of sfVHL to act as a CUL2 adaptor protein en route to ubiquitination, sfVHL was expressed and purified recombinantly from E. coli as a complex with sfElonginB and C. […] The intensity and number of resolved bands observed, each indicating a distinct ubiquitination pattern of MBP-FKBP-Hibit-His6, was dependent on the dTAGV-1 concentration in the preparation. […] Further, ubiquitination as indicated by the complex band pattern above the MBP-FKBP-Hibit-His6 protein, was only observed when sfVHL:sfElonginB/C+CUL2/RBX1 was present confirming that the observed ubiquitination is PROTAC and sfVHL:sfElonginB/D+CUL2/RBX1 complex dependent.
To assess the ability of sfVHL to act as a CUL2 adaptor protein en route to ubiquitination, sfVHL was expressed and purified recombinantly from E. coli as a complex with sfElonginB and C. […] Further, ubiquitination was only observed when sfVHL:sfElonginB/C+CUL2/RBX1 was present confirming that MBP-FKBP-Hibit-His6 ubiquitination is PROTAC and sfVHL:sfElonginB/D+CUL2/RBX1 complex dependent.

## CC(C)C[C@H](NC(=O)[C@H](Cc1ccccc1)NC(=O)c1cnccn1)B(O)O [bortezomib, Bortezomib]
FKBP-GFP; added together with dTAG-V1 (1 or 10 μM)
  effect on dTAG-V1 dependent reduction of GFP signal: prevents the dTAG-V1 dependent reduction of GFP signal

## CC[C@H](C(=O)N1CCCC[C@H]1C(=O)O[C@H](CCc1ccc(OC)c(OC)c1)c1ccccc1OCC(=O)NCCCCCCC(=O)N[C@H](C(=O)N1C[C@@H](O)C[C@@H]1C(=O)N[C@@H](C)c1ccc(-c2scnc2C)cc1)C(C)(C)C)c1cc(OC)c(OC)c(OC)c1 [dTAG-V1-NEG]
FKBP-GFP; 24 hours of incubation
  GFP fluorescence (FKBP-GFP): no decrease in green fluorescent protein is observed

## CC[C@H](C(=O)N1CCCC[C@H]1C(=O)O[C@H](CCc1ccc(OC)c(OC)c1)c1ccccc1OCC(=O)NCCCCCCC(=O)N[C@H](C(=O)N1C[C@H](O)C[C@H]1C(=O)N[C@@H](C)c1ccc(-c2scnc2C)cc1)C(C)(C)C)c1cc(OC)c(OC)c(OC)c1 [dTAG-V1]
FKBP-GFP; 24 hours of incubation
  GFP fluorescence (FKBP-GFP): significantly decreased
  RFP signal: remains unchanged
  concentration of optimal decrease of GFP fluorescence: ~100 nM

## CC[C@H](C(=O)N1CCCC[C@H]1C(=O)O[C@H](CCc1ccc(OC)c(OC)c1)c1ccccc1OCC(=O)NCCCCCCC(=O)N[C@H](C(=O)N1C[C@H](O)C[C@H]1C(=O)N[C@@H](C)c1ccc(-c2scnc2C)cc1)C(C)(C)C)c1cc(OC)c(OC)c(OC)c1 [dTAGV-1]
[1]
  ubiquitination of MBP-FKBP-Hibit-His6: PROTAC mediated mono- and poly-ubiquitination of the protein; also recorded: observed in the presence of dTAGV-1 in a dose dependent manner; also recorded: FKBP substrate is ubiquitinated in vitro
